{"source": "PubChem BioAssay (NCI)", "experiment_in_all_cases": "growth of human tumour cells (NCI), 48 h", "key": {"COLO 205 colon": {"system": "COLO 205 colon"}, "HCC-2998 colon": {"system": "HCC-2998 colon"}, "MCF7 breast": {"system": "MCF7 breast"}, "PC-3 prostate": {"system": "PC-3 prostate"}, "SK-OV-3 ovarian": {"system": "SK-OV-3 ovarian"}, "KM12 colon": {"system": "KM12 colon"}, "SN12C renal": {"system": "SN12C renal"}, "BT-549 breast": {"system": "BT-549 breast"}, "SNB-75 CNS": {"system": "SNB-75 CNS"}, "UACC-62 melanoma": {"system": "UACC-62 melanoma"}, "HS 578T breast": {"system": "HS 578T breast"}, "OVCAR-8 ovarian": {"system": "OVCAR-8 ovarian"}, "SK-MEL-2 melanoma": {"system": "SK-MEL-2 melanoma"}, "EKVX NSCLC": {"system": "EKVX NSCLC"}, "LOX IMVI melanoma": {"system": "LOX IMVI melanoma"}, "IGROV1 ovarian": {"system": "IGROV1 ovarian"}, "OVCAR-4 ovarian": {"system": "OVCAR-4 ovarian"}, "TK-10 renal": {"system": "TK-10 renal"}, "HT29 colon": {"system": "HT29 colon"}, "CCRF-CEM leukemia": {"system": "CCRF-CEM leukemia"}, "HOP-92 NSCLC": {"system": "HOP-92 NSCLC"}, "SF-268 CNS": {"system": "SF-268 CNS"}, "MDA-MB-231 breast": {"system": "MDA-MB-231 breast"}, "NCI-H226 lung": {"system": "NCI-H226 lung"}, "UO-31 renal": {"system": "UO-31 renal"}, "RPMI-8226 leukemia": {"system": "RPMI-8226 leukemia"}, "786-0 renal": {"system": "786-0 renal"}, "UACC-257 melanoma": {"system": "UACC-257 melanoma"}, "SK-MEL-28 melanoma": {"system": "SK-MEL-28 melanoma"}, "OVCAR-5 ovarian": {"system": "OVCAR-5 ovarian"}, "CAKI-1 renal": {"system": "CAKI-1 renal"}, "NCI-H460 lung": {"system": "NCI-H460 lung"}, "A549 NSCLC": {"system": "A549 NSCLC"}, "SK-MEL-5 melanoma": {"system": "SK-MEL-5 melanoma"}, "A498 renal": {"system": "A498 renal"}, "HCT-116 colon": {"system": "HCT-116 colon"}, "HCT-15 colon": {"system": "HCT-15 colon"}, "HL-60(TB) leukemia": {"system": "HL-60(TB) leukemia"}, "NCI-H522 lung": {"system": "NCI-H522 lung"}, "MOLT-4 leukemia": {"system": "MOLT-4 leukemia"}, "SW-620 colon": {"system": "SW-620 colon"}, "U251 CNS": {"system": "U251 CNS"}, "M14 melanoma": {"system": "M14 melanoma"}, "SF-295 CNS": {"system": "SF-295 CNS"}, "NCI-H23 lung": {"system": "NCI-H23 lung"}, "HOP-62 NSCLC": {"system": "HOP-62 NSCLC"}, "ACHN renal": {"system": "ACHN renal"}, "T-47D breast": {"system": "T-47D breast"}, "RXF 393 renal": {"system": "RXF 393 renal"}, "DU-145 prostate": {"system": "DU-145 prostate"}, "MALME-3M melanoma": {"system": "MALME-3M melanoma"}}, "note": "“And” between values parts separate entries of the source, which are not always exact repeats. Equal entries are not always repeated.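 Compound exposure: 48 hours, 5 concentrations, 96-well plates. Here, GI50 denotes the concentration required for 50% inhibition of growth. TGI: concentration producing complete growth inhibition.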", "data": [{"compound": "COC(=O)/C=C/c1cc(O)c2c(c1)[C@H](C(=O)OC)[C@@H](c1ccc(O)c(O)c1)O2", "values": [{"measurement": "TGI", "setting": "COLO 205 colon", "result": 61.6, "unit": "µM"}, {"measurement": "TGI", "setting": "HCC-2998 colon", "result": 54.6, "unit": "µM"}, {"measurement": "TGI", "setting": "MCF7 breast", "result": "> 100", "unit": "µM"}, {"measurement": "TGI", "setting": "PC-3 prostate", "result": "> 100", "unit": "µM"}, {"measurement": "TGI", "setting": "SK-OV-3 ovarian", "result": "> 79.8", "unit": "µM"}, {"measurement": "TGI", "setting": "KM12 colon", "result": 14.5, "unit": "µM"}, {"measurement": "TGI", "setting": "SN12C renal", "result": "> 74.1", "unit": "µM"}, {"measurement": "TGI", "setting": "BT-549 breast", "result": 30.3, "unit": "µM"}, {"measurement": "TGI", "setting": "SNB-75 CNS", "result": 0.0711, "unit": "µM"}, {"measurement": "TGI", "setting": "UACC-62 melanoma", "result": "> 59.5", "unit": "µM"}, {"measurement": "TGI", "setting": "HS 578T breast", "result": 78.3, "unit": "µM"}, {"measurement": "TGI", "setting": "OVCAR-8 ovarian", "result": 4.37, "unit": "µM"}, {"measurement": "TGI", "setting": "SK-MEL-2 melanoma", "result": "> 70", "unit": "µM"}, {"measurement": "TGI", "setting": "EKVX NSCLC", "result": "> 85", "unit": "µM"}, {"measurement": "TGI", "setting": "LOX IMVI melanoma", "result": "> 82.6", "unit": "µM"}, {"measurement": "TGI", "setting": "IGROV1 ovarian", "result": "> 38.8", "unit": "µM"}, {"measurement": "TGI", "setting": "OVCAR-4 ovarian", "result": "> 100", "unit": "µM"}, {"measurement": "TGI", "setting": "TK-10 renal", "result": "> 100", "unit": "µM"}, {"measurement": "TGI", "setting": "HT29 colon", "result": "> 37.9", "unit": "µM"}, {"measurement": "TGI", "setting": "CCRF-CEM leukemia", "result": 5.18, "unit": "µM"}, {"measurement": "TGI", "setting": "HOP-92 NSCLC", "result": "> 94", "unit": "µM"}, {"measurement": "TGI", "setting": "SF-268 CNS", "result": "> 87", "unit": "µM"}, {"measurement": "GI50", "setting": "MDA-MB-231 breast", "result": 0.0497, "unit": "µM"}, {"measurement": "TGI", "setting": "MDA-MB-231 breast", "result": "> 100", "unit": "µM"}, {"measurement": "TGI", "setting": "NCI-H226 lung", "result": "> 22.7", "unit": "µM"}, {"measurement": "TGI", "setting": "UO-31 renal", "result": "> 63.5", "unit": "µM"}, {"measurement": "TGI", "setting": "RPMI-8226 leukemia", "result": "> 41", "unit": "µM"}, {"measurement": "TGI", "setting": "786-0 renal", "result": "> 100", "unit": "µM"}, {"measurement": "TGI", "setting": "UACC-257 melanoma", "result": "> 100", "unit": "µM"}, {"measurement": "TGI", "setting": "SK-MEL-28 melanoma", "result": "> 71", "unit": "µM"}, {"measurement": "TGI", "setting": "OVCAR-5 ovarian", "result": "> 100", "unit": "µM"}, {"measurement": "TGI", "setting": "CAKI-1 renal", "result": "> 100", "unit": "µM"}, {"measurement": "TGI", "setting": "NCI-H460 lung", "result": 24.5, "unit": "µM"}, {"measurement": "TGI", "setting": "A549 NSCLC", "result": "> 100", "unit": "µM"}, {"measurement": "TGI", "setting": "SK-MEL-5 melanoma", "result": 2.18, "unit": "µM"}, {"measurement": "TGI", "setting": "A498 renal", "result": "> 28", "unit": "µM"}, {"measurement": "TGI", "setting": "HCT-116 colon", "result": "> 72", "unit": "µM"}, {"measurement": "TGI", "setting": "HCT-15 colon", "result": "> 100", "unit": "µM"}, {"measurement": "GI50", "setting": "HL-60(TB) leukemia", "result": 0.0293, "unit": "µM"}, {"measurement": "TGI", "setting": "HL-60(TB) leukemia", "result": 0.0801, "unit": "µM"}, {"measurement": "TGI", "setting": "NCI-H522 lung", "result": 0.838, "unit": "µM"}, {"measurement": "TGI", "setting": "MOLT-4 leukemia", "result": "> 45.7", "unit": "µM"}, {"measurement": "TGI", "setting": "SW-620 colon", "result": "> 100", "unit": "µM"}, {"measurement": "TGI", "setting": "U251 CNS", "result": "> 100", "unit": "µM"}, {"measurement": "TGI", "setting": "M14 melanoma", "result": "> 45.2", "unit": "µM"}, {"measurement": "TGI", "setting": "SF-295 CNS", "result": "> 93.2", "unit": "µM"}, {"measurement": "TGI", "setting": "NCI-H23 lung", "result": "> 100", "unit": "µM"}, {"measurement": "TGI", "setting": "HOP-62 NSCLC", "result": "> 58.7", "unit": "µM"}, {"measurement": "TGI", "setting": "ACHN renal", "result": "> 85.2", "unit": "µM"}]}, {"compound": "Cc1ccnc2[nH]c(-c3ccccc3)cc(=O)c12", "values": [{"measurement": "TGI", "setting": "PC-3 prostate", "result": "> 100", "unit": "µM"}, {"measurement": "TGI", "setting": "T-47D breast", "result": "> 100", "unit": "µM"}, {"measurement": "TGI", "setting": "KM12 colon", "result": 12.8, "unit": "µM"}, {"measurement": "GI50", "setting": "SN12C renal", "result": 0.0399, "unit": "µM"}, {"measurement": "TGI", "setting": "BT-549 breast", "result": "> 100", "unit": "µM"}, {"measurement": "TGI", "setting": "HS 578T breast", "result": "> 100", "unit": "µM"}, {"measurement": "GI50", "setting": "OVCAR-8 ovarian", "result": 0.0193, "unit": "µM"}, {"measurement": "TGI", "setting": "OVCAR-8 ovarian", "result": "> 100", "unit": "µM"}, {"measurement": "GI50", "setting": "EKVX NSCLC", "result": "> 100", "unit": "µM"}, {"measurement": "TGI", "setting": "EKVX NSCLC", "result": "> 100", "unit": "µM"}, {"measurement": "GI50", "setting": "IGROV1 ovarian", "result": 1.84, "unit": "µM"}, {"measurement": "TGI", "setting": "IGROV1 ovarian", "result": "> 100", "unit": "µM"}, {"measurement": "TGI", "setting": "OVCAR-4 ovarian", "result": "> 100", "unit": "µM"}, {"measurement": "TGI", "setting": "TK-10 renal", "result": 58.9, "unit": "µM"}, {"measurement": "TGI", "setting": "HT29 colon", "result": 0.0259, "unit": "µM"}, {"measurement": "TGI", "setting": "HOP-92 NSCLC", "result": 93.7, "unit": "µM"}, {"measurement": "GI50", "setting": "SF-268 CNS", "result": 0.0171, "unit": "µM"}, {"measurement": "TGI", "setting": "SF-268 CNS", "result": "> 100", "unit": "µM"}, {"measurement": "GI50", "setting": "MDA-MB-231 breast", "result": 0.134, "unit": "µM"}, {"measurement": "GI50", "setting": "NCI-H226 lung", "result": 1.46, "unit": "µM"}, {"measurement": "TGI", "setting": "NCI-H226 lung", "result": "5.96 µM and 32.5 µM"}, {"measurement": "GI50", "setting": "RPMI-8226 leukemia", "result": 0.0278, "unit": "µM"}, {"measurement": "TGI", "setting": "786-0 renal", "result": "> 100", "unit": "µM"}, {"measurement": "TGI", "setting": "SK-MEL-28 melanoma", "result": "> 100", "unit": "µM"}, {"measurement": "GI50", "setting": "OVCAR-5 ovarian", "result": 20.9, "unit": "µM"}, {"measurement": "TGI", "setting": "OVCAR-5 ovarian", "result": 51.2, "unit": "µM"}, {"measurement": "TGI", "setting": "NCI-H460 lung", "result": "> 100", "unit": "µM"}, {"measurement": "TGI", "setting": "A549 NSCLC", "result": "> 100", "unit": "µM"}, {"measurement": "TGI", "setting": "RXF 393 renal", "result": 0.0184, "unit": "µM"}, {"measurement": "TGI", "setting": "HCT-116 colon", "result": 10.6, "unit": "µM"}, {"measurement": "TGI", "setting": "DU-145 prostate", "result": "> 100", "unit": "µM"}, {"measurement": "TGI", "setting": "NCI-H522 lung", "result": 0.192, "unit": "µM"}, {"measurement": "TGI", "setting": "MOLT-4 leukemia", "result": "> 100", "unit": "µM"}, {"measurement": "TGI", "setting": "SW-620 colon", "result": "> 100", "unit": "µM"}, {"measurement": "TGI", "setting": "U251 CNS", "result": "> 100", "unit": "µM"}, {"measurement": "GI50", "setting": "NCI-H23 lung", "result": 0.0692, "unit": "µM"}, {"measurement": "TGI", "setting": "ACHN renal", "result": 63.3, "unit": "µM"}, {"measurement": "TGI", "setting": "MALME-3M melanoma", "result": "> 100", "unit": "µM"}]}]}
